Data set [1] relates to cardiovascular activities / arrhythmia. As to conditions: cited from earlier work; for cardiovascular activities: Fukuda H. et al.
The test system of data set [2] is anaesthetized rats. As to conditions: for Arrhythmic scores / Antiarrhythmic effect: X ± SD; for Incidence of VF: n=10; for Death / animals with VF / animals without VF: of n=10.
Data set [3] concerns rabbits. Kind of data set: Electrically-induced ventricular fibrillation threshold (VFT) in rabbits. It is filed as in vivo, rabbit.
Data set [4] has as its system anaesthetized rats. Put plainly: animal or person. As to conditions: Rattus norvegicus.
The test system of data set [5] is dogs. Put plainly: Ouabain-induced arrhythmia in dogs. It counts as in vivo, dog. The following applies: for Incidence of arrhythmia: I13 iv 3 mg/kg, lidocaine iv 12 mg/kg.
Procedure: (iv, 12 mg/kg) on ouabain induced arrhythmia in dogs
(Ouabain administration for 30 min)
In data set [6] the test system is Langendorff's perfused rat hearts. Kind of data set: Lasting antiarrhythmic action after po administration, hearts removed and mounted on Langendorff's apparatus. It counts as in vivo. The following applies: 10 mg/kg po at 1 hr before experiment (FIG. 4). Here is the method: 1, 3 and 6 hours after the administration of 100 mg/kg of I13 by p.o. to rats, the hearts were removed and mounted onto Langendorff's apparatus. […] (see FIG. 4)
FIG. 4. Influence of po I13 and mexiletine on the time course of reperfusion-induced arrhythmias in Langendorff's perfused rat hearts

The structures appear in SMILES notation. Like-named read-outs stand apart in the source and are kept apart here.

Consider `O=C(NCC1CCCCN1)c1cc(OCC(F)(F)F)ccc1OCC(F)(F)F` (stereo not shown) [Flecainide], for which the side effects entry in data set [1] was “marked side effects of pulmonary fibrosis and thyroid function change”. The effect upon arrhythmia entry in data set [1] (clinical use) is listed as “good effect upon arrhythmia”.
Broadly, the ED50 is the midpoint of the dose-response relation. Lower therefore signals an effect at a small dose. Take `CCN(CC)CC(=O)Nc1c(C)cccc1C` [Lidocaine, reference compound]: in data set [1] (clinical use), the oral administration result is listed as “can not be administered orally”. The “prevention of ventricular fibrillation” value in data set [1] (clinical use) is “can not effectively prevent ventricular fibrillation”. Moreover, in data set [1] (clinical use), the suppression of arrhythmia entry was “can effectively suppress arrhythmia”. Further, the Arrhythmic scores in data set [2] (iv 1.0 mg/kg) amounted to 5.3 ± 0.8; in data set [2] (iv 3.0 mg/kg), 1.7 ± 1.8. Besides, the Antiarrhythmic effect is on record as 1.0 ± 1.4 in data set [2] (iv 1.0 mg/kg, coronary occlusion 5 min); 0.38 ± 0.23 in data set [2] (iv 1.0 mg/kg, coronary occlusion 10 min); 3.6 ± 1.3 in data set [2] (iv 1.0 mg/kg, reperfusion 0.17 min); 4.4 ± 1.5 in data set [2] (iv 1.0 mg/kg, reperfusion 0.33 min); 5.3 ± 0.9 in data set [2] (iv 1.0 mg/kg, reperfusion 0.5 min); 2.1 ± 1.7 in data set [2] (iv 1.0 mg/kg, reperfusion 1 min). Also, the Antiarrhythmic effect in data set [2] (iv 1.0 mg/kg, reperfusion 2 min) was 1.3 ± 1.0; in data set [2] (iv 1.0 mg/kg, reperfusion 3 min), 0.6 ± 1.0; in data set [2] (iv 1.0 mg/kg, reperfusion 5 min) it was 0.2 ± 0.4; in data set [2] (iv 1.0 mg/kg, reperfusion 6 min), 0.2 ± 0.4; in data set [2] (iv 1.0 mg/kg, reperfusion 7 min), 0.2 ± 0.4; in data set [2] (iv 1.0 mg/kg, reperfusion 10 min), 0.2 ± 0.4. Moreover, the Antiarrhythmic effect in data set [2] (iv 1.0 mg/kg, reperfusion 15 min) was 0.06 ± 0.2; in data set [2] (iv 1.0 mg/kg, reperfusion 25 min), 0; in data set [2] (iv 3.0 mg/kg, coronary occlusion 5 min), 0.2 ± 0.3; in data set [2] (iv 3.0 mg/kg, coronary occlusion 10 min), 0.5 ± 0.6; in data set [2] (iv 3.0 mg/kg, reperfusion 0.17 min), 1.2 ± 1.4; in data set [2] (iv 3.0 mg/kg, reperfusion 0.33 min) it was 1.7 ± 1.8. In addition, the Antiarrhythmic effect in data set [2] (iv 3.0 mg/kg, reperfusion 0.5 min) is reported as 1.1 ± 1.4; in data set [2] (iv 3.0 mg/kg, reperfusion 1 min) it was 0.8 ± 1.3; in data set [2] (iv 3.0 mg/kg, reperfusion 2 min), 0.4 ± 1.0; in data set [2] (iv 3.0 mg/kg, reperfusion 3 min), 0.3 ± 0.5; in data set [2] (iv 3.0 mg/kg, reperfusion 5 min) it was 0.4 ± 0.7; in data set [2] (iv 3.0 mg/kg, reperfusion 6 min), 0.3 ± 0.7. Further, the Antiarrhythmic effect in data set [2] (iv 3.0 mg/kg, reperfusion 7 min) was 0.2 ± 0.4; in data set [2] (iv 3.0 mg/kg, reperfusion 10 min) it was 0.2 ± 0.3; in data set [2] (iv 3.0 mg/kg, reperfusion 15 min) it was 0.1 ± 0.3; in data set [2] (iv 3.0 mg/kg, reperfusion 25 min), 0.1 ± 0.3; in data set [2] (po 10 mg/kg, coronary occlusion 5 min), 0.5 ± 0.5; in data set [2] (po 10 mg/kg, coronary occlusion 10 min) it was 0.40 ± 0.22. The Antiarrhythmic effect turned out to be 2.6 ± 1.6 in data set [2] (po 10 mg/kg, reperfusion 0.17 min); 2.6 ± 1.8 in data set [2] (po 10 mg/kg, reperfusion 0.33 min); 2.5 ± 2.3 in data set [2] (po 10 mg/kg, reperfusion 0.5 min); 2.2 ± 1.9 in data set [2] (po 10 mg/kg, reperfusion 1 min); 2.4 ± 2.2 in data set [2] (po 10 mg/kg, reperfusion 1.5 min); 1.5 ± 2.5 in data set [2] (po 10 mg/kg, reperfusion 3 min). The Antiarrhythmic effect is given as 1.1 ± 1.9 in data set [2] (po 10 mg/kg, reperfusion 4 min); 1.0 ± 1.9 in data set [2] (po 10 mg/kg, reperfusion 5 min); 0.8 ± 1.6 in data set [2] (po 10 mg/kg, reperfusion 6 min); 1.3 ± 2.5 in data set [2] (po 10 mg/kg, reperfusion 7 min); 1.4 ± 2.9 in data set [2] (po 10 mg/kg, reperfusion 15 min); 1.4 ± 2.9 in data set [2] (po 10 mg/kg, reperfusion 25 min). The Antiarrhythmic effect in data set [2] (po 30 mg/kg, coronary occlusion 5 min) was found to be 0.9 ± 0.7; in data set [2] (po 30 mg/kg, coronary occlusion 10 min), 1.0 ± 0.9; in data set [2] (po 30 mg/kg, reperfusion 0.17 min), 1.7 ± 1.5; in data set [2] (po 30 mg/kg, reperfusion 0.33 min), 1.8 ± 1.6; in data set [2] (po 30 mg/kg, reperfusion 0.5 min), 1.0 ± 1.0; in data set [2] (po 30 mg/kg, reperfusion 1 min) it was 0.6 ± 0.9. Further, the Antiarrhythmic effect in data set [2] (po 30 mg/kg, reperfusion 1.5 min) was 0.5 ± 0.6; in data set [2] (po 30 mg/kg, reperfusion 3 min), 0.2 ± 0.2; in data set [2] (po 30 mg/kg, reperfusion 4 min) it was 0.2 ± 0.2; in data set [2] (po 30 mg/kg, reperfusion 5 min), 0.2 ± 0.2; in data set [2] (po 30 mg/kg, reperfusion 6 min) it was 0.2 ± 0.3; in data set [2] (po 30 mg/kg, reperfusion 7 min), 0.2 ± 0.3. Also, the Antiarrhythmic effect in data set [2] (po 30 mg/kg, reperfusion 15 min) is 0.3 ± 0.3; in data set [2] (po 30 mg/kg, reperfusion 25 min), 0.2 ± 0.3. The “Incidence of VF” value in data set [2] (iv 1.0 mg/kg) amounted to 50%; in data set [2] (iv 3.0 mg/kg), 0%. Besides, the Death in data set [2] (iv 1.0 mg/kg) and in data set [2] (iv 3.0 mg/kg) was 0 throughout. In addition, the “animals with VF” value is listed as 3 in data set [2] (iv 1.0 mg/kg) and 0 in data set [2] (iv 3.0 mg/kg). For the same compound, the “animals without VF” value is reported as 7 in data set [2] (iv 1.0 mg/kg) and 10 in data set [2] (iv 3.0 mg/kg). In addition, the “VFT Before” value in data set [3] (baseline, iv 15 mg/kg group) is on record as 5.6 ± 0.9 volt. The “VFT After” value in data set [3] (iv 15 mg/kg) was determined as 8.8 ± 1.6 volt. In data set [3] (iv 15 mg/kg), the ΔVFT stood at 3.3 ± 0.9 volt. Further, the ED50 in data set [4] (iv) is 2.23 mg/kg. Also, the Incidence of arrhythmia is on record as 97 ± 8% in data set [5] (0 min (before administration)); 83 ± 41% in data set [5] (5 min); 74 ± 42% in data set [5] (10 min); 55 ± 46% in data set [5] (15 min); 42 ± 45% in data set [5] (20 min); 16 ± 24% in data set [5] (25 min). The Incidence of arrhythmia in data set [5] (30 min) was 10 ± 17%; in data set [5] (35 min), 8 ± 10%; in data set [5] (40 min) it was 28 ± 25%; in data set [5] (45 min) it was 10 ± 14%; in data set [5] (50 min), 8 ± 15%; in data set [5] (60 min), 10 ± 21%. Besides, the reoccurrence of arrhythmia result in data set [5] (within 4 hour period) was “reoccurrences of VPBs, VT and VF have been detected”.
`COc1ccc2cc3[n+](cc2c1OC)CCc1cc2c(cc1-3)OCO2` [berberine]: the cardiovascular activities result in data set [1] is “highly potent cardiovascular activities”.
With `COc1ccc2cc3[n+](cc2c1O)CCc1cc2c(cc1-3)OCO2` [berberubine], in data set [1], the cardiovascular activities result is recorded as “highly potent cardiovascular activities”.
For the compound `Cc1cccc(C)c1OCC(C)N` (stereo not shown) [mexiletine, reference compound], in data set [6], the ke is 0.075.
Take `COc1cc2c(cc1OC)-c1cc3ccc(OC)c(OC)c3c[n+]1CC2` [palmatine]: the cardiovascular activities result in data set [1] is given as “highly potent cardiovascular activities”.
For the compound `CCCNCC(O)COc1ccccc1C(=O)CCc1ccccc1` (stereo not shown) [propafenon, reference compound], in data set [2] (po 10 mg/kg), the Arrhythmic scores turned out to be 2.6 ± 1.6, the “Incidence of VF” value is listed as 20%, the Death was 2 and the “animals with VF” value was 1. For the same compound, the “animals without VF” value in data set [2] (po 10 mg/kg) was 7. Besides, in data set [2] (po 30 mg/kg), the Arrhythmic scores is reported as 1.8 ± 1.6, the “Incidence of VF” value came out at 0%, the Death is listed as 0 and the “animals with VF” value worked out at 0. Moreover, in data set [2] (po 30 mg/kg), the “animals without VF” value is on record as 10. This compound came in with an ED50 in data set [4] (po) of 19.3 mg/kg.

The record behind these values is patent US5470852A, “Tetrahydroprotoberberine quaternary ammonium compounds useful in for treating arrhythmia” (priority 1991, dated 1995).
